Marks after values point to notes of the source that are not given here.
Legend:
[1] = target: T1, alpha-amylase from porcine pancreas (Sus scrofa, UniProt P00690); test: Alpha-amylase inhibition assay; type: biochemical; conditions: pancreatic alpha-amylase; mean ± SD, triplicates
T1 construct: alpha-amylase from porcine pancreas; purchased Sigma-Aldrich (Oakville, ON, Canada); host or cells: porcine pancreas
T1 sequence (P00690 16-511): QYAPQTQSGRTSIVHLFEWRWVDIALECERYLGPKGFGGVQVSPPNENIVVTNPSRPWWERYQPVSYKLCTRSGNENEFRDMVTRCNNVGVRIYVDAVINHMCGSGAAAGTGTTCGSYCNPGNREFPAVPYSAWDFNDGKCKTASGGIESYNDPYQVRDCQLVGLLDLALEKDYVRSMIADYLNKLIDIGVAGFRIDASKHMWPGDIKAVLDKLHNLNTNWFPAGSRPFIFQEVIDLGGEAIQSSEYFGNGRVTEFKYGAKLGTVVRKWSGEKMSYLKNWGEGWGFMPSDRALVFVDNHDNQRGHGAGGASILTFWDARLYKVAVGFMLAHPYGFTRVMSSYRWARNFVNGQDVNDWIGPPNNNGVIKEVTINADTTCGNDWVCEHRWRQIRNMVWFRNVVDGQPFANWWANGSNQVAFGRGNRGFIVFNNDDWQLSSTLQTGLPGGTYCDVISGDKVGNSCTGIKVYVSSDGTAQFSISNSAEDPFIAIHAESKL
Experimental: Plant extract screening for alpha-amylase inhibition was conducted using the previously described method [46], with some modifications. Except as otherwise indicated, solutions were prepared in 0.01 M potassium phosphate buffer containing sodium chloride (60 mM) and sodium azide (0.02% w/v), pH 6.8. […] After 10 min of incubation at 37 °C, 20 µL of the substrate 2-chloro-4-nitrophenyl-α-D-maltotrioside (5 mM) was added. The mixture was then incubated for 30 min at 37 °C for the reaction to take place. The reaction was terminated by adding 240 µL of trisodium phosphate solution of pH 11 (1% w/v) to stop enzyme activity. […] The positive control was a mixture of enzyme and substrate without inhibitors. Sample control containing sample and buffer was used to eliminate color interference. Buffer was used as blank. The percentage of the alpha-amylase inhibition was calculated as I% = [(Abs0 − Abs1)/Abs0] × 100, where A0 is the absorbance of the positive control subtracted from the blank, Abs 1 is the absorbance in the presence of the extract subtracted from sample control. The IC50 (half-maximal inhibitory concentration) was calculated graphically, using an analytical curve by plotting the concentration versus the inhibition percentage (I%).

[2] = tested on: amyloid fibrils of glycated BSA (BSA/Fru + Glu); test: Inhibition of amyloid fibril formation, ThT assay (BSA/Fru + Glu); type: biochemical, bovine
Experimental: The formation of AGEs was measured after incubation of a system containing protein and carbohydrates. This assay was based on previous methods. The reaction system was obtained by adding 300 µL of plant extract or of the pure compound (at different concentrations), 150 µL D-fructose (200 mM), 150 µL of D-glucose (200 mM), and 300 µL of bovine serum albumin (BSA, 3 mg/mL) to a test tube. All these solutions, except plant extract, were dissolved in 0.05 M potassium phosphate buffer (pH 7.4) containing NaCl (100 mM) and NaN3 (0.02% w/v). The plant extract was prepared in a buffer containing 60% ethanol. The mixture was incubated in the dark at 37 °C for 7 days with constant stirring. After the incubation, 200 µL of the reaction mixture was transferred to a 96-well black plate, and fluorescent AGEs were measured using a microplate reader (Infinite® 200 PRO, TECAN, Männedorf, Switzerland) at λex = 360 and λem = 440 nm. […] The fluorescence readings for the experimental treatment were blanked against extract blanks to eliminate the baseline fluorescence of the sample. The percentage of the AGE inhibition and IC50 was calculated as described in Section 3.3.1.
The fibrillar state of modified BSA was determined with ThT as previously described. ThT is a probe that binds directly to amyloid fibrils to give a strong fluorescent signal and thus can be used to quantify β-amyloid due to protein glycation. […]

[3] = tested on: amyloid fibrils of glycated BSA (BSA/MGO); test: Inhibition of amyloid fibril formation, ThT assay (BSA/MGO); type: biochemical, bovine; conditions: highest obtained, PESE 200, PIC 200, AMG 100 µg/mL
Experimental: The BSA-MGO assay was based on those described before, with some modifications. This experiment is based on the formation of fluorescent AGEs from the middle stage of protein glycation. MGO (1.5 mM) and BSA (3 mg/mL) were dissolved separately in 0.05 M phosphate buffer (pH 7.4) containing NaCl (100 mM) and NaN3 (0.02% w/v). Then, 300 μL of MGO was incubated with samples at different concentrations (dissolved in a buffer containing 60% ethanol) for an hour at 37 °C, in the dark, with constant stirring. After BSA (3 mg/mL) was added to the reaction mixture and incubation time was extended to 48 h at 37 °C in darkness. The rest of the procedure was the same as that for the BSA-glucose/fructose model that is described above. The percentage of the AGE inhibition and IC50 was calculated as described in Section 3.3.1.
The fibrillar state of modified BSA was determined with ThT as previously described. ThT is a probe that binds directly to amyloid fibrils to give a strong fluorescent signal and thus can be used to quantify β-amyloid due to protein glycation. Basically, 30 μL of glycated protein (approx. 1 mg/mL), obtained as described previously, was mixed with 100 μL ThT reagent (10 μM ThT in 100 mM phosphate buffer, pH 7.0), and fluorescence was collected at excitation/emission wavelengths of 450/490 nm in a microplate reader (Infinite® 200 PRO, TECAN, Männedorf, Switzerland). […]

AML-12 cells = test: MTS cell viability assay; type: cell-based, mouse; conditions: up to 250 µg/mL; 24 h
Experimental: BEAS-2B, MCF10-A, and AML-12, cells were purchased from the American Tissue Type Culture Collection (ATCC; CRL-9609, CRL-10317, and CRL-2254) and cultured with a specific medium. BEAS-2B cells were cultured with LHC-9 media at 37 °C in an incubator with 5% CO2. […] Cells were grown to around 70% confluence on the culture flask, and passages (<10) were employed for all experimental conditions. MTS Cell Titer 96™ aqueous cell proliferation assay was used to determine cell viability. […] For that, 1 × 10^4 cells were plated on a 96-well plate with a growth medium of 100 μL/well. […] Fifteen microliters of MTS reagent (with PMS) was then added to each well and incubated for 3 h in the dark. Absorbance was recorded at 490 nm using a microplate reader (Infinite® 200 PRO, TECAN, Männedorf, Switzerland). For each experiment, cells with DMSO media served as control, and cells with only culture medium and MTS reagent served as the blank.

alpha-glucosidase = conditions: formation of p-nitrophenol; cited from earlier work

Experimental for HOCl scavenging activity: Briefly, a freshly prepared HOCl solution, by adjusting the pH of a 1% solution of NaOCl to 6.2 with dropwise addition of diluted H2SO4, was diluted to 30 µM, using 100 mM phosphate buffer pH 7.4. […] QCT was used as means of comparison. Fluorescence assays were performed in a microplate reader (Infinite® 200 PRO, TECAN, Männedorf, Switzerland), at 37 °C, at wavelengths of 505 ± 10 nm and 530 ± 10 nm, for excitation and emission, respectively. The results were expressed as IC50 (μg/mL) of extract solution.

Oc1cc(O)cc(/C=C/c2ccc(O)c(O)c2)c1 [PIC, 3,3′,4′,5-trans-tetrahydroxystilbene]
IC50 [1]: 350 µM
Inhibition of the formation of β-amyloid fibrils in vitro ([2]; abstract, glycation system not specified): up to 100%
Inhibition of Amyloid Fibrils (%), Fructose + Glucose ([2]; highest obtained, PESE 200, PIC 200, AMG 100 µg/mL, BSA/Fru + Glu): 100 ± 5.3 ^a %
Inhibition of Amyloid Fibrils (%), MGO [3]: 100 ± 3.8 ^a %
HOCl IC50 (HOCl scavenging activity): 1.2 ± 0.5 µg/mL
Viability of AML-12 cells (AML-12 cells): maintained
Mechanism of alpha-glucosidase inhibition (alpha-glucosidase): non-competitive

Source: paper PMC9267955, “Antidiabetic, Antiglycation, and Antioxidant Activities of Ethanolic Seed Extract of Passiflora edulis and Piceatannol In Vitro” (Molecules, 2022)
